Laboratory results published in patent US8653082B2, “6-phenyl-2-[((piperidin-4-ylmethyl)-piperazin-1YL) or piperazin 1-ylmethyl)-piperidin-1-yl)]-imidazo[2,1-B][1,3,4]thiadiazole derivatives and their use” (Urifer Ltd., priority 2009, dated 2014).

Tests used:
Assay type in all cases: cell-based
[1] = tested on: SW48; test: XTT cell viability, SW48 colon cancer cells; details: Homo sapiens; SW48 colon cancer cell line; XTT test; compound in 30 mM HEPES pH=7, 0.25 to 10 μM; read-out: EC50 values on colon and liver cancer cells, SW48
Procedure: (§1) The effect of the compounds Z522-0249, Z522-0251, Erbitux and E-626-0342 on the growth profile of cancer cells which express Fer was tested. The cells that were tested were: the colon cancer cell lines HT29, HCT 116, RKO, SW620, and SW48 and the liver cancer cell line Hep3B. The effect of each of the three compounds (Z522-0249, Z522-0251 and E-626-0342) on FS11 cells, a non malingnant fibroblastic cell line, was also studied.
(§2) Cells were seeded in 96 well microplates and were left to grow untreated overnight. Z522-0249 and Z522-0251 were dissolved in 30 mM HEPES pH=7 and were then added to each well in a dose dependent manner from 0.25 to 10 μM. E626-0342 was dissolved in DMSO and was then added to each well in a dose dependent manner from 0.1 to 5 μM. The concentration of DMSO in each well was 0.4% v/v. Untreated cells and cells subjected to 30 mM HEPEs pH=7 or 0.4% DMSO alone, served as controls. The number of viable cells in each well was determined 48, 72, and 96 hours after compound addition, using the XTT test (Berridge, M. V. et al, 2005).

[2] = tested on: RKO; test: XTT cell viability, RKO colon cancer cells; details: Homo sapiens; RKO colon cancer cell line; XTT test; compound in 30 mM HEPES pH=7, 0.25 to 10 μM; read-out: EC50 values on colon and liver cancer cells, RKO
Procedure: as §1, §2

[3] = tested on: FS (normal fibroblasts); test: XTT cell viability, FS (normal fibroblasts); details: Fibroblast; FS normal (non malignant) fibroblasts; XTT test; compound in 30 mM HEPES pH=7, 0.25 to 10 μM
Procedure: as §1, §2

[4] = tested on: HCT116; test: XTT cell viability, HCT116 colon cancer cells; details: Homo sapiens, HCT-116; HCT116 colon cancer cell line; XTT test; compound in 30 mM HEPES pH=7, 0.25 to 10 μM; read-out: EC50 values on colon and liver cancer cells, HCT116
Procedure: as §1, §2

[5] = tested on: HT29; test: XTT cell viability, HT29 colon cancer cells; details: Homo sapiens, HT-29; HT29 colon cancer cell line; XTT test; compound in 30 mM HEPES pH=7, 0.25 to 10 μM; read-out: EC50 values on colon and liver cancer cells, HT29
Procedure: as §1, §2

[6] = tested on: SW620; test: XTT cell viability, SW620 colon cancer cells; details: Homo sapiens, SW-620; SW620 colon cancer cell line; XTT test; compound in 30 mM HEPES pH=7, 0.25 to 10 μM; read-out: EC50 values on colon and liver cancer cells, SW620
Procedure: as §1, §2

[7] = tested on: Hep3B; test: XTT cell viability, Hep3B liver cancer cells; details: Homo sapiens; Hep3B liver cancer cell line; XTT test; compound in 30 mM HEPES pH=7, 0.25 to 10 μM; read-out: EC50 values on colon and liver cancer cells, Hep3B
Procedure: as §1, §2

Which results are given for `CC(C)c1ccc(-c2cn3nc(N4CCN(CC5CCN(C)CC5)CC4)sc3n2)cc1` [Z522-0249, 6-(4-isopropylphenyl)-2-{4-[(1-methylpiperidin-4-yl)methyl]piperazin-1-yl}imidazo[2,1-b][1,3,4]thiadiazole]?
EC50 [1]: 0.5 to 1 µM; EC50 [2]: 1 to 2 µM; EC50 [3]: 10 µM; EC50 [4]: 3 µM; EC50 [5]: 2 µM; EC50 [6]: 0.5 to 1 µM; EC50 [7]: 1 to 2 µM

What does the source list for `CC(C)c1ccc(-c2cn3nc(N4CCC(CN5CCN(C)CC5)CC4)sc3n2)cc1` [Z522-0251, 6-(4-isopropyl-phenyl)-2-{4-[(4-methyl-piperazin-1-yl)methyl]piperidin-1-yl}imidazo[2,1-b][1,3,4]thiadiazole]?
EC50 [1]: 0.5 to 1 µM; EC50 [2]: 2 to 3 µM; EC50 [4]: 3 to 4 µM; EC50 [5]: 2 to 3 µM; EC50 [6]: 0.5 to 1 µM; EC50 [7]: 1 to 2 µM
